The values that follow come from patent publication US12492169B2, “Aminopyridine compound and application thereof” (priority 2020, dated 2025).

For data set [1], the system named is Candida albicans ATCC MYA-2876. Put plainly: Mouse candidemia efficacy model. Format: in vivo. Conditions: female CD-1 mice infected with Candida albicans ATCC MYA-2876. On the procedure: Experimental animals: female CD-1 mice, 7 weeks old, 27 to 29 g, n=5 or 8;
microbial pathogen: Candida albicans ATCC MYA-2876;
inoculation level and route: 2.0 to 4.0E+05 CFU/mouse, infected by tail vein injection;
treatment: The treatment started at 1 hour after infection. Firstly, ABT was administered orally, and 2 hours later, the test compound was injected intraperitoneally once a day for 7 days in total, with an administration volume of 10 mL/kg.
Observation indicators: Changes in body weight and mortality within 7 days after infection in each group of mice.

The nature of data set [2]: Mouse pharmacokinetic evaluation, intraperitoneal injection after oral ABT. Format: in vivo. As to conditions: ip, female CD-1 mice, 26 mpk, ABT 50 mg/kg orally 2 hours before, plasma. An excerpt:
Experimental Purpose: Using female CD-1 mice as test animals, LC/MS/MS was used to measure the plasma drug concentration at different times after intraperitoneal injection of the test compound. To study the pharmacokinetic behavior of the test compound in mice and evaluate its pharmacokinetic characteristics. Drug preparation: An appropriate amount of sample was weighed and then prepared into a clear or suspended solution. Administration scheme: Two healthy female CD-1 mice were taken, purchased from Beijing Vital River Laboratory Animal Technology Co., Ltd., and given a normal diet. The drug was administered through intraperitoneal injection. Operational steps: 2 hours before administration, 1-aminobenzotriazole (ABT) was orally administered (50 mg/kg, 5 mg/mL in normal saline), and after animal administration, about 30 μL of blood was collected at 0.083, 0.25, 0.5, 1, 2, 4, 8, and 24 hours, and placed in commercially available anticoagulant tubes pre-added with EDTA-K2. The tubes were centrifuged for 10 minutes to separate the plasma, and the plasma was stored at −60° C. The content of the target compound in the plasma sample was determined by LC/MS/MS method, and the experimental results are shown in Table 3.

Data set [3] in a line: Pharmacokinetic evaluation in rats (IV, PO). Format: in vivo, Sprague-Dawley strain rats. Conditions: Sprague-Dawley, plasma, Rat. From the text:
Experimental Purpose: To evaluate the druggability of the compounds by measuring its pharmacokinetic properties in different animal species.
Experimental materials: CD-1 mice, Sprague-Dawley strain rats, beagle dogs, and crab-eating macaques.
Drug preparation: An appropriate amount of sample was weighed and then prepared into a clear or suspended solution.
Experimental procedure: The animal pharmacokinetic characteristics after intravenous injection and oral administration of the compound were tested using a standard protocol. The candidate compound was prepared as a clear solution (for intravenous injection) or a homogeneous suspension (for oral administration) during the experiment and administered to the animals as a single dose. Whole blood samples were collected at 0.083, 0.25, 0.5, 1, 2, 4, 8, and 24 hours, centrifuged at 3200 g for 10 minutes to separate the supernatant to obtain plasma samples. The plasma concentration was quantitatively analyzed by LC-MS/MS analysis method and pharmacokinetic parameters were calculated, such as peak concentration, peak time, clearance rate, half-life, area under the drug-time curve, etc.

The subject of data set [4] is Candida albicans ATCC MYA-4788. Put plainly: Mouse Candida vaginal infection model. Format: in vivo. As to conditions: female C3H/NeH mice, 20 mpk intraperitoneally once a day for 3 days after ABT, CFU at 96 hours of infection, P<0.001. On the procedure:
• Experimental animals: female C3H/NeH mice, 6 to 8 weeks old, 19 to 21 g, n=5 to 6; • microbial pathogen: Candida albicans ATCC MYA-4788; • inoculation level and route: 5.0E+05 CFU/mouse, infected by vaginal instillation; • test sample: WX004: 20 mpk
Treatment: ABT was administered orally 22 hours after infection, and the test compound was injected intraperitoneally 24 hours after infection. In this experiment, the Vehicle group and the test compound group were set up, with a total of 3 days of administration, once a day, and a administration volume of 10 mL/kg.
Observation indicators: After 96 hours of infection in each group of mice, the vaginal tissue and vaginal lavage fluid of the mice were taken for CFU counting. Plasma samples were collected at 0.25 h, 0.5 h, 1 h, 2 h, 4 h, 8 h, and 24 h after the last administration.

With `Nc1ccc(C#CCc2ccc(COc3ccccn3)cc2)cn1` [WX004], the “protection from death caused by candidemia” value in data set [1] (26 mg/kg intraperitoneally once a day for 7 days after 50 mg/kg ABT orally, n=5) is given as “completely protect”. The same compound returned a survival rate in data set [1] (6 mpk intraperitoneally once a day for 7 days after ABT orally, n=8) of 100%. The AUC in data set [2] (read-out: Concentration Integral AUC) worked out at 305 µM·h. For the same compound, the Cmax in data set [2] (read-out: Peak Concentration Cmax) turned out to be 19 µM. In data set [2] (read-out: Peak Time Tmax), the Tmax worked out at 1 h. For the same compound, in data set [3] (3 mg/kg, IV, 3 mpk), the AUC turned out to be 22 µM·h, the Vd worked out at 1.8 L/kg, the clearance is 7 mL/min/kg and the half-life is 4 h. Moreover, in data set [3] (30 mg/kg, PO, 30 mpk), the AUC was 95 µM·h, the Cmax is 10 µM, the time to peak (Tmax) amounted to 1.5 h and the bioavailability is 45%. Besides, in data set [4], the “reduction of fungal load in the vaginal lavage fluid compared with the Vehicle group” value was determined as 2.5 lg and the “reduction of fungal load in the vaginal tissue compared with the Vehicle group” value worked out at 2.7 lg.
